From ChEMBL document CHEMBL1128961 (Bioorg Med Chem Lett, 1996) come the findings set out here.

In the first experiment the target is T1, Acetylcholinesterase (Bos taurus) (UniProt P23795).
T1 sequence (whole entry): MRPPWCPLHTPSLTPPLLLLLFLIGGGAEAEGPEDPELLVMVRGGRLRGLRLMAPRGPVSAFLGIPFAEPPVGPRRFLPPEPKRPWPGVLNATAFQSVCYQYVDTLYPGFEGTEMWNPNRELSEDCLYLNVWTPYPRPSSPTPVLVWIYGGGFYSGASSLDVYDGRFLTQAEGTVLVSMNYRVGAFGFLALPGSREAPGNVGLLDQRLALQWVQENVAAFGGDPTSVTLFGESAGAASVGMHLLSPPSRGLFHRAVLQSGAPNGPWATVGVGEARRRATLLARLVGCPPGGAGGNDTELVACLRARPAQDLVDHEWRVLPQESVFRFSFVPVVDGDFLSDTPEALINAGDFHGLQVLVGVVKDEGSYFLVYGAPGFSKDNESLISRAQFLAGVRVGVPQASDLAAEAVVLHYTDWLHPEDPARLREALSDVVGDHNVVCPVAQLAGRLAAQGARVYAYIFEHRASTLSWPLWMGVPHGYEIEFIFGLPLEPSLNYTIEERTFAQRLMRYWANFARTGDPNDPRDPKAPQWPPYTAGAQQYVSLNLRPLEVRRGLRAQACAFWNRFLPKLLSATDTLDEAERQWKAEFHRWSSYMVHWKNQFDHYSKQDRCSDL
Description: Kinetic constant for inhibition of fetal bovine serum acetylcholinesterase
The compound `C/C=C1\[C@H]2C=C(C)C[C@]1(N)c1ccc(=O)[nH]c1C2` (stereo in doubt; form 1) registered a k off of 0.000367 s⁻¹. Compound `C/C=C1\C2C=C(C)C[C@]1(N)c1ccc(O)nc1C2(C)C` (mixture of isomers) gave a k off of 0.000217 s⁻¹. For `C/C=C1\[C@H]2C=C(C)C[C@]1(N)c1ccc(=O)[nH]c1C2` (stereo in doubt; form 2), the k off stood at 0.000334 s⁻¹.

The target of another experiment is T2, Acetylcholinesterase (Bos taurus, UniProt P23795).
T2 sequence (P23795 whole entry): T1 sequence (whole entry)
Kind of experiment: Dissociation constant for the inhibition of fetal bovine serum acetylcholinesterase was determined..
By Ki is commonly meant a dissociation constant, usually derived from enzyme kinetics or from competition with a known ligand. Higher therefore signals a looser hold on the target. Consider `C/C=C1\[C@H]2C=C(C)C[C@]1(N)c1ccc(=O)[nH]c1C2` (stereo in doubt; form 1) [HUPERZINE A], for which the inhibitory constant (Ki) was 23.6 nM. That is a double-digit nanomolar value. The same measure, in the same setting: under `C/C=C1\[C@H]2C=C(C)C[C@]1(N)c1ccc(=O)[nH]c1C2` (stereo in doubt; form 2) [HUPERZINE A] stands 5.9 nM; under `C/C=C1\C2C=C(C)C[C@]1(N)c1ccc(O)nc1C2(C)C` (mixture of isomers), 16.7 nM.
